Key:
[1] = system: RBL-2H3 cells; assay: degranulation (β-hexosaminidase release) in sensitized/stimulated RBL-2H3 cells; format: cell-based, rat; settings: positive control 20 µM
Method: The antiallergic activity of the tested sample of mixture M was evaluated by measuring its ability to prevent degranulation processes in a rat leukemia cell line (RBL-2H3), widely used as a model simulating mast cells in immunological and allergological studies.
(§1) The RBL-2H3 cells were first sensitized and then stimulated to induce degranulation.
The test was conducted on RBL-2H3 cells grown in DMEM (Dulbecco's modified Eagle medium) containing 10% fetal bovine serum (FBS) and 1% antibiotics (penicillin and streptomycin) and incubated in standard culture conditions (37°C, 5% CO2). […]
The medium was then recovered and separated from the cells and incubated with 4-nitrophenyl-N-acetyl-β-D-glucosamide. The reaction was stopped with carbonate buffer and the absorbance was measured by spectrophotometric reading at 405 nm. Degranulation was calculated as the percentage of β-hexosaminidase relative to non-sensitized (NS) cells as follows: Degranulation (%) = (ODX)/(ODNS)⋅100 [formula]
The measured absorbance (optical density, OD) is directly proportional to the amount of β-hexosaminidase present in the analyzed fluids, which in turn correlates positively with the levels of histamine released during the degranulation phase and is therefore an indicative marker of the degranulation process. […] The values are expressed as means ± standard deviation. […]

[2] = system: TNFα; assay: TNFα release by ELISA in sensitized/stimulated RBL-2H3 cells; format: cell-based, rat; settings: positive control 20 µM
Method: The anti-inflammatory action was instead evaluated, always in the same cell line, by measuring the ability of the sample to inhibit the release of tumor necrosis factor alpha (TNFα).
as §1
The test was conducted on RBL-2H3 cells grown in DMEM (Dulbecco's modified Eagle medium) containing 10% fetal bovine serum (FBS) and 1% antibiotics (penicillin and streptomycin) and incubated in standard culture conditions (37°C, 5% CO2). RBL-2H3 cells are widely used in allergy and immunology research, as, like mast cells, they express FCεRI and, following cross-linking between IgE bound to FCεRI and allergens, they undergo degranulation. In this way, therefore, they simulate the behavior of mast cells and basophils in their response to an immunological stimulus.
The supernatant recovered from the cells was also used for the dosage of TNFα performed by ELISA (Enzyme-Linked Immunosorbent Assay), a very widespread biochemical technique used for the quantification of proteins and peptides. In an ELISA assay, a specific […] for TNFα is immobilized on a solid surface (the bottom of a well) to which the assay medium is added. Detection is done by means of a biotinylated secondary antibody and then reacted with streptavidin-HRP. The colorimetric reaction is proportional to the amount of TNFα present. The results are read by spectrophotometer at 450 nm. The values obtained were then interpolated into a standard curve of TNFα.
The absorbance (optical density, OD) measured at 450 nm is directly proportional to the amount of TNFα produced by the tissues. To calculate the concentrations of TNFα, the OD values obtained were interpolated into a standard curve of TNFα. The percentages were calculated with respect to the non-sensitized and non-stimulated cells (NS). The values are expressed as means ± standard deviation. Statistical processing of the data was performed by Student's t-test. Values of p<0.05 are considered significant. […]

C=C1CC[C@H]2C(=C)CC[C@H]3C(=C)C(=O)O[C@@H]3[C@@H]12 [PC, Dehydrocostolactone]
protection (% vs NC), reduction in degranulation [1]: 80.8%
β-hexosaminidase (% vs NS) ([1]; anti-DNP IgE / DNP-HSA, NC = 1,274.6): 244.8%
protection (% vs NC), reduction in TNFα release [2]: 19.5%
TNFα (% vs NS) ([2]; NC = 227.8): 183.4%
TNFα ([2]; NC = 248.8): 200.3 pg/mL

From EP4653006A1, “NOVEL MIXTURE OF ACTIVE INGREDIENTS, COMPOSITIONS CONTAINING THEM, AND THEIR USE AGAINST ALLERGY AND/OR INFLAMMATION” (Global Pharmacies Partner S.R.L. in Forma Abbreviata G.P.P. …, priority 2024, dated 2025)
